Measurements reported in US8604214B2, “Compounds for alleviation, prevention or treatment of osteoporosis, the preparation thereof and pharmaceutical composition comprising the same” (Ewha University-Industry Collaboration Foundation, priority 2011, dated 2013).

Legend:
Type in all cases: cell-based, ICR mice
[1] = tested on: bone marrow cells (BMM), TRAP-positive multinucleated osteoclasts; test: RANKL-induced osteoclast differentiation of BMM, TRAP staining; details: Mus musculus, 96 h, RANKL and 30 ng/ml M-CSF, 4 days, TRAP-positive cells having 3 or more nuclei, read-out: IC50 (μM), multinucleated osteoclast formation
Excerpt: ICR mice (6˜9 weeks old, male) were sacrificed by cervical dislocation, followed by immersion in 70% ethanol for sterilization. Dissection was made on the tibia skin to remove the muscle attached thereto. The tibia was excised by cutting the distal tibia and dislocating the patella. The tibia were then cut slightly at their opposite ends. A 25-gauge (G) syringe needle was inserted into the bone at one end and α-MEM (Minimum Essential Medium) was infused into the bone through the needle to collect bone marrow cells.
After centrifugation, a cell pellet was suspended in α-MEM and red blood cells in the suspension were removed with two volumes of Gey's solution. After centrifugation, the cell pellet was resuspended in α-MEM supplemented with 10% FBS.
After a primary culture of the bone marrow cells, the bone marrow cells were incubated overnight in 10 ng/ml M-CSF (macrophage colony-stimulating factor) and then for an additional three days in 30 ng/ml M-CSF. After Adhesive cells (BMM) were recovered, ng/ml RANKL and 30 ng/ml M-CSF or ng/ml RANKL, 30 ng/ml M-CSF in combination with various concentrations of the K11, K14, K17, K18, K19, or K22 compound were added to each well plated at a density of 1×10^5 cells/well and each well was incubated for 4 days. The incubated to cells were fixed for 10 min with 10% formalin and then re-fixed for 1 min with ethanol/acetone (1:1(v/v)). The cells were stained for TRAP (tartrate-resistant acid phosphatase). TRAP-positive cells having 3 or more nuclei were evaluated as multinucleated osteoclasts by observation under a microscope, and their IC50 values are given in the following table 1.

[2] = tested on: c-fos; test: Western blot analysis of c-fos expression; details: 200 ng/ml RANKL following pretreatment with 10 μM K11 for 30 minutes; FIG. 5
Procedure: (§1) After BMM cells treated with reagent were incubated for a predetermined period of time, the BMM cell were lysed in a lysis buffer and centrifuged. Following normalization to BSA (bovine serum albumin) standards, protein concentrations were quantitatively analyzed using a protein assay kit (Bio-Rad). Twenty micrograms of the protein was denatured and separated by SDS-PAGE (poly acrylamide gel electrophoresis) and transferred for 1 hour and 45 minutes onto a PVDF membrane in 80 V. Subsequently, the membrane was blocked with PBST (Phosphate Buffered Saline Tween-20) containing 5% skim milk, followed by reaction with anti-NFATc1 (Nuclear factor of activated T-cells cytoplasmic 1, 1:200, Santa Cruz) antibody or anti-c-fos (1:1000, Cell Signaling) antibody as a primary antibody, respectively (1:200 ratio herein indicated means dilution of 200 times). After the membrane was washed five times with TBST and reacted with HRP (horseradish peroxidase)-conjugated secondary antibody, the protein was visualized using ECL Advance (Amersham Co.) and analyzed.
(§2) In FIGS. 4 and 5, veh represents a control group treated with DMSO, RANKL represents a group treated with 200 ng/ml RANKL, R+K11 represents a group treated with 200 ng/ml RANKL following pretreatment with 10 μM K11 for 30 minutes, while * represents p<0.05 compared to Veh and ** represents *: p<0.05 compared to RANKL.

[3] = tested on: BMM cells on dentine slices (bone resorption of osteoclasts); test: Pit formation assay on dentine slices; details: 50 ng/ml RANKL, 30 ng/ml M-CSF and 10 μM K11, six days, compared to RANKL; FIGS. 3B and 3C
Procedure: BMM cells were cultured for six days on dentine slices in 50 ng/ml RANKL and 30 ng/ml M-CSF, or 50 ng/ml RANKL 30 ng/ml and 10 μM K11 compound. After the cells on surfaces of dentine slice were washed, pits were stained with toluidin blue (J. T. Baker, UK, 1 μg/ml). Pits formed on the dentine slices by bone absorption were observed under a microscope and were analyzed.
(§3) In FIG. 3, Veh represents a control group treated with DMSO, RANKL represents a group treated with 50 ng/ml RANKL, K11 represents a group treated with 10 μM K11, R+K11 represents a group treated with 50 ng/ml RANKL following pretreatment with 10 μM K11 for 30 minutes, while * represents p<0.05 compared to Veh and ** represents *: p<0.05 compared to RANKL. N.D.=Not Detectable. FIG. 3A is graphs showing analyzed results of reverse transcription polymerase chain reaction (RT-PCR) performed for measurement of expression levels of osteoclast-specific marker genes (calcitonin receptor, cathepsin K, αv-integrin, β3-integrin, ATP6v0d2, DC-STAMP), FIG. 3B is a view of result of pits formed on dentine slices by bone absorption according to treatment with K11 compound and FIG. 3C is a graph showing analyzed results of the experiment results obtained in FIG. 3B. […]

[4] = tested on: osteoclast-specific marker genes (calcitonin receptor, cathepsin K, αv-integrin, β3-integrin, ATP6v0d2, DC-STAMP); test: RT-PCR of osteoclast-specific marker genes; details: R+K11: 50 ng/ml RANKL following pretreatment with 10 μM K11 for 30 minutes, compared to RANKL; FIG. 3A
Procedure: Total RNA isolation was conducted using Easy-blue (Intron Biochemistry, Inc.). cDNA was synthesized from […] of the total RNA using an oligodT primer and 10 mM dNTP, 1 unit of an RNase inhibitor and 4 units of Scrip reverse transcriptase (Fermentas, Life science) at 42° C. for 60 min, followed by termination by heating at 70° C. for 10 min.
as §3

[5] = tested on: NFATc1; test: Western blot analysis of NFATc1 expression; details: 200 ng/ml RANKL following pretreatment with 10 μM K11 for 30 minutes; FIG. 4
Procedure: as §1, §2

IC50 [1] [µM]	SMILES	also measured
7.77	Clc1cccc(OCCCCCOc2nc3ccccc3s2)c1 [Compound K14, 2-(5-(3-chlorophenoxy)pentyloxy)benzo[d]thiazole]	
1.56	COc1cc(C(=O)N(C(C)C)C(C)C)ccc1OCCCCCOc1nc2ccccc2s1 [Compound K11, 4-(5-(Benzo[d]thiazol-2-yloxy)pentyloxy)-N,N-diisopropyl-3-methoxybenzamide]	RANKL-induced increase in the expression level of c-fos [2]: the effect of RANKL was reduced; number of pits on dentine slices [3]: significant reduction; expression levels of osteoclast-specific marker genes [4]: significantly decreased; RANKL-induced increase in the expression level of NFATc1 [5]: the effect of RANKL was reduced
23.4	COc1ccccc1OCCCCCOc1nc2ccccc2s1 [Compound K17, 2-(5-(2-Methoxyphenoxy)pentyloxy)benzo[d]thiazole]	
18.4	Fc1ccccc1OCCCCCOc1nc2ccccc2s1 [Compound K18, 2-(5-(2-Fluorophenoxy)pentyloxy)benzo[d]thiazole]	

SMILES	IC50 [1] [µM]	also measured
COc1cc(C(=O)N(C(C)C)C(C)C)ccc1OCCCCOc1nc2ccccc2s1 [Compound K22, 4-(4-(Benzo[d]thiazol-2-yloxy)butoxy)-N,N-diisopropyl-3-methoxy Benzamide]	2.2	
c1ccc(OCCCCOc2nc3ccccc3s2)cc1 [Compound K19, 2-(4-Phenoxybutoxy)benzo[d]thiazole]	17.7	
